SMILES strings stand for the structures. Several values for one entry are separate records, joined by “and”; a condition that tells them apart may be missing. Equal values may be shown once. Activity calls are given as the source filed them.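 How the source made its calls: active means fitted half-maximal concentration for change in GFP expression of 33 µM or less; inactive means the rest.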

This assay in a line: concentration-dependent AGP1-GFP change, TOR pathway – cell-based, flow cytometry, S. cerevisiae, MLPCN hits, dose response (AID 2743). The note with it: S. cerevisiae AGP1-GFP strain, flow cytometry GFP, 3 h; at 33 µM (top of the series).
Consider `O=C1Nc2ccccc2/C1=C\C(=O)c1ccccc1`, for which the GFP fluorescence (kMESF) was 38.3 kMESF (inactive). For `O=[N+]([O-])c1cc(O)c2ncccc2c1`, the GFP fluorescence (kMESF) is 42.7 kMESF (inactive). The same measure for `O=C(O)c1ccn2c(C(=O)c3ccccc3)c(-c3ccccc3)cc2c1`: 37.7 kMESF (inactive); for `O=[N+]([O-])c1ccc(S(=O)(=O)c2cccc(C(F)(F)F)c2)nc1`: 37.7 kMESF (inactive); for `O=C(Nc1nnc(-c2ccc(F)cc2)o1)c1cc(Cl)sc1Cl`: 40.6 kMESF (inactive). To `CC[C@H](C)/C=C(C)/C=C/C1=CC2=C(Cl)C(=O)[C@@](C)(OC(C)=O)C(=O)C2=CO1` belongs 1.57 kMESF (inactive); to `Cc1ccc(N=c2ssnc2Cl)cc1`, 43.2 kMESF (inactive); to `CCCCOc1ccc(C(=O)NNC(=S)NC(=O)CC)cc1`, 39.6 kMESF (inactive). As to `O=C(Oc1c(Cl)cc(Cl)c2cccnc12)c1ccco1`, the GFP fluorescence (kMESF) is 40.7 kMESF (inactive). To `COc1ccc(C(=O)/C=C2/C(=O)Nc3ccccc32)cc1OC` belongs 43.9 kMESF (inactive). The same measure for `COc1ccc(C(=O)NC(=S)NNC(=O)CCc2ccccc2)cc1`: 37.5 kMESF (inactive); for `O=C(Nc1nc2ccc(F)cc2s1)c1ccccn1`: 41.4 kMESF (inactive); for `C#CCOCCOCCOCCNc1nc(N2CCN(C(=O)CCCCCCCCCCNC(=O)[C@H](CCCCN)n3cc(CCO)nn3)CC2)nc(N2CCN(C(=O)CCCCCCCCCCNC(=O)[C@H](CCCN=C(N)N)n3cc(C[C@@H](C)CC)nn3)CC2)n1`: 45.1 kMESF (inactive). The same measure for `Cc1ccc2[nH]cc(/C=C/c3cc[n+](C)cc3)c2c1`: 48.3 kMESF (inactive); for `CC(C)(C)c1nnc(N/N=C/c2cc(Br)ccc2O)n(N)c1=O`: 34.2 kMESF (inactive). With `CC(C)[C@]1(c2ccc(Cl)cc2)ON(c2ccccc2C(F)(F)F)C1=O`, the GFP fluorescence (kMESF) is 39.3 kMESF (inactive). The same measure for `CC(Oc1cc2oc(=O)c3c(c2cc1Cl)CCC3)C(=O)NCCN1CCOCC1` (centres undefined): 34.8 kMESF (inactive). The same measure for `COc1cc(NC(=O)c2ccccc2[N+](=O)[O-])ccc1NC(=O)c1cc2ccccc2o1`: 44.3 kMESF (inactive).

For `O=C(C#Cc1ccccc1)c1cccc([N+](=O)[O-])c1`, the GFP fluorescence (kMESF) is 52 kMESF (inactive). `Cc1ccc(O)c(N=Nc2nccs2)c1`: the GFP fluorescence (kMESF) is 30.4 kMESF (inactive). The same measure for `O=C(OCC(=O)N1CCN(C(=O)c2ccco2)CC1)c1cc(-c2ccc(F)cc2)nc2ccccc12`: 49.9 kMESF (inactive) and 40 kMESF (inactive); for `COc1cccc(N=Cc2nc(-c3ccccc3)oc2OC(C)=O)c1`: 35.9 kMESF (inactive). The same measure for `C#CCOCCOCCOCCNc1nc(N2CCN(C(=O)CCCCCCCCCCNC(=O)[C@H](CCCCN)n3cc(CCCC(=O)O)nn3)CC2)nc(N2CCN(C(=O)CCCCCCCCCCNC(=O)[C@H](CCCN=C(N)N)n3cc(C[C@@H](C)CC)nn3)CC2)n1`: 42.4 kMESF (inactive); for `N#C/C(=C\c1cc(Br)ccc1F)C(=O)NC1CC1`: 30.6 kMESF (inactive); for `O=C(Nc1ccc(O)cc1)C1CCCN1S(=O)(=O)c1ccc(F)cc1` (centres undefined): 42.4 kMESF (inactive).

Regarding `Cc1ccc(NC(=O)c2cc(N3C(=O)C=CC3=O)ccc2N2CCOCC2)cc1Cl`, the GFP fluorescence (kMESF) is 36.2 kMESF (inactive). To `COc1ccc(N/N=C(\C#N)C(N)=O)cc1` belongs 52.4 kMESF (inactive). To `O=C(NC(=S)Nc1ccc2oc(=O)ccc2c1)c1cccc(Cl)c1` belongs 29.8 kMESF (inactive); to `CCCCCCCCCCCCCCCC[n+]1cccc2ccccc21`, 2.67 kMESF (inactive); to `COC(=O)CCC(=O)OC1(C)C(=O)C2=COC(c3ccc(OC)cc3)=CC2=C(Br)C1=O` (centres undefined), 7.85 kMESF (inactive). To `C=CCN1C(=O)/C(=C/c2cccs2)C(=O)NC1=S` belongs 20.4 kMESF (inactive); to `O=C(O)c1ccc2c(c1)C(=O)/C(=C/c1ccccc1)C2=O`, 40.5 kMESF (inactive); to `COC(CNC(=O)c1ccc2c3c(onc13)-c1ccccc1C2=O)OC`, 1.89 kMESF (inactive). In the case of `COc1ccccc1-c1nc2s/c(=C\c3cccs3)c(=O)n2n1`, the GFP fluorescence (kMESF) was 27.7 kMESF (inactive). With `O=C(OCn1ncc(Br)c(Br)c1=O)c1ccc(F)cc1`, the GFP fluorescence (kMESF) is 43.7 kMESF (inactive). To `O=C(/C=C/c1cccc([N+](=O)[O-])c1)c1ccc([N+](=O)[O-])o1` belongs 10.4 kMESF (inactive); to `CCN1/C(=C/C=C/c2sc3ccccc3[n+]2CC)Sc2ccccc21`, 70 kMESF (inactive).

Take `O=[N+]([O-])c1c(Nc2ccccn2)cc(Cl)c2nonc12`: the GFP fluorescence (kMESF) is 26.8 kMESF (inactive). With `O=C1NC(=O)C(=Cc2ccc(-c3ccc(Cl)cc3)o2)C(=O)N1`, the GFP fluorescence (kMESF) was 22.3 kMESF (inactive).

For `Cc1ccc(/C=C2\SC(=S)N(CC3CCCO3)C2=O)o1` (centres undefined), the GFP fluorescence (kMESF) was 42 kMESF (inactive). Take `Cc1cccc(N=Nc2ccc(O)c3ncccc23)c1`: the GFP fluorescence (kMESF) was 40.1 kMESF (inactive). Turning to `O=c1cc(-c2ccccc2)cc(-c2ccccc2)n1O`, the GFP fluorescence (kMESF) was 22.5 kMESF (inactive). For the molecule `Cc1cccc2c1NC(=O)/C2=C\C(=O)c1cccs1`, the GFP fluorescence (kMESF) is 43.9 kMESF (inactive). Take `O=C1N(c2ccccc2C(F)(F)F)O[C@@]1(c1ccccc1)C1CCCCC1`: the GFP fluorescence (kMESF) is 36.2 kMESF (inactive).

Take `O=C(/C=C/c1ccc(F)cc1)NC(=S)NNC(=O)c1cnccn1`: the GFP fluorescence (kMESF) was 35.8 kMESF (inactive). Turning to `Cc1ccc2c(nc3s/c(=C\c4ccc(-c5ccccc5C(=O)O)o4)c(=O)n32)c1C`, the GFP fluorescence (kMESF) was 49.9 kMESF (inactive).

`Cc1cc(C)nc(S/C=C/C(=O)c2ccccc2)n1`: the GFP fluorescence (kMESF) is 44.8 kMESF (inactive). With `CCN(CC)c1ccc(/C=C2\C(=O)c3ccc(C(=O)O)cc3C2=O)cc1`, the GFP fluorescence (kMESF) is 747 kMESF (inactive).

`CN(C)c1ccc(N=Cc2nc(-c3ccccc3)oc2OC(=O)c2cccc(Cl)c2)cc1`: the GFP fluorescence (kMESF) is 30.1 kMESF (inactive). To `Oc1c(Br)cc(Br)cc1C=Nc1ccc2c(c1)OCO2` belongs 42.9 kMESF (inactive); to `O=C(Nc1ccc(Cl)cc1Cl)c1cccc(N2C(=O)C=CC2=O)c1`, 41.1 kMESF (inactive). For the molecule `N#Cc1ccc(N=c2ssnc2Cl)cc1`, the GFP fluorescence (kMESF) was 33.2 kMESF (inactive). Regarding `O=C(Oc1c(Cl)cc(Cl)c2cccnc12)c1cccc([N+](=O)[O-])c1`, the GFP fluorescence (kMESF) is 34.3 kMESF (inactive).

`COc1cc(/C=C/[N+](=O)[O-])ccc1O`: the GFP fluorescence (kMESF) was 32.3 kMESF (inactive). The same measure for `COc1ccc(NC2=C(Cl)C(=O)N(CCc3ccccc3)C2=O)cc1`: 43.7 kMESF (inactive); for `COc1ccccc1N1C(=O)c2cccc3c(C(=O)O)ccc(c23)C1=O`: 49 kMESF (inactive). To `O=[N+]([O-])c1cnc(Sc2ccncn2)s1` belongs 33.9 kMESF (inactive); to `O=C(CS(=O)c1ccccc1[N+](=O)[O-])Oc1ccc(Br)cc1` (centres undefined), 42.8 kMESF (inactive). To `CCOC(=O)/C(=C\c1cn(C)c2ccccc12)[N+](=O)[O-]` belongs 41.9 kMESF (inactive). Regarding `Cc1ccc(NC(=O)c2nc(S(=O)(=O)Cc3ccccc3)ncc2Cl)cc1`, the GFP fluorescence (kMESF) is 45.8 kMESF (inactive).

Regarding `O=C(Nc1cccc(C(F)(F)F)c1)Oc1ccc(Cl)c2cccnc12`, the GFP fluorescence (kMESF) was 31.6 kMESF (inactive).

For the molecule `COc1cccc(/C=N/Nc2ccc([N+](=O)[O-])cn2)c1O`, the GFP fluorescence (kMESF) was 29.3 kMESF (inactive). The same measure for `Cc1cccc(Nc2nc(-c3ccccn3)cs2)n1`: 30.1 kMESF (inactive); for `COc1ccccc1[C@@]1(C)ON(c2ccccc2C(F)(F)F)C1=O`: 30.9 kMESF (inactive).

As to `O=C(COc1ccccc1)N1CCN(c2ncnc3c2cnn3-c2ccccc2)CC1`, the GFP fluorescence (kMESF) was 35.1 kMESF (inactive).

In the case of `CC(C)(C)c1cc(C(c2cccnc2)N2CCN(CCO)CC2)cc(C(C)(C)C)c1O` (centres undefined), the GFP fluorescence (kMESF) is 42.2 kMESF (inactive). The same measure for `CCCN1CCc2c(sc(NC(=S)NC(=O)c3ccccc3)c2C#N)C1`: 42 kMESF (inactive). Consider `Cc1ccccc1OCC(=O)NNC(=S)NC(=O)c1ccco1`, for which the GFP fluorescence (kMESF) was 43.5 kMESF (inactive). The same measure for `Cc1ccccc1C(=O)NNC(=S)NC(=O)c1ccc(Cl)cc1Cl`: 40.9 kMESF (inactive). On to `COc1cccc(C(=O)Nc2nnc(-c3ccc(Cl)cc3)o2)c1`, for which the GFP fluorescence (kMESF) is 34.6 kMESF (inactive).

Take `[O-][n+]1cccc2c(Br)cc(Br)c(O)c21`: the GFP fluorescence (kMESF) is 50.1 kMESF (inactive). The same measure for `O=C1ON=C(c2ccccc2)/C1=C/c1ccc(-c2ccccc2[N+](=O)[O-])o1`: 29.1 kMESF (inactive). To `Cc1ccc(/C=C2\C(=O)NC(=S)N(c3ccccc3F)C2=O)s1` belongs 26.9 kMESF (inactive). The same measure for `O=C1NC(=O)N(Cc2ccc(F)cc2)C(=O)/C1=C/c1cccs1`: 28.1 kMESF (inactive); for `Oc1ccc2ccccc2c1/C=N/Nc1nnc(-c2ncc[nH]2)c2ccccc12`: 21.8 kMESF (inactive); for `CC1=C(C)/C(=N\OS(=O)(=O)c2ccc(C)cc2)C=CC1=O`: 31.9 kMESF (inactive). Take `O=C1c2cccc3c([N+](=O)[O-])ccc(c23)C(=O)N1c1ccccn1`: the GFP fluorescence (kMESF) was 35.2 kMESF (inactive).

As to `CCN1C(=O)/C(=C\C(=O)c2cccs2)c2cc(Br)ccc21`, the GFP fluorescence (kMESF) is 45.3 kMESF (inactive). To `CC(=O)N(C(C)=O)c1ncnc2c1c(-c1ccc(Cl)cc1)nn2C(C)(C)C` belongs 36.6 kMESF (inactive).

Source of the values: PubChem BioAssay AID2743 (NMMLSC, 2010).
